Data published in ChEMBL document CHEMBL1201862, “PubChem BioAssay data set” (2004).
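These data come from cells grown in 96-well plates and exposed to compound for 48 hours at five concentrations. GI50 = concentration required for 50% inhibition of growth.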 Active and inactive are the calls of the source. No stated cut-off is given here; in the data, active = GI50 up to about 1.1 µM and inactive = higher.

Assays:
Experiment in all cases: NCI anticancer screen, dose series, 48 h
ACHN = tested on: ACHN
SF-539 = tested on: SF-539
SNB-75 = tested on: SNB-75
NCI-H23 = tested on: NCI-H23
MOLT-4 = tested on: MOLT-4
SNB-19 = tested on: SNB-19
786-0 = tested on: 786-0
RPMI-8226 = tested on: RPMI-8226
T47D = tested on: T47D
SR = tested on: SR
SK-MEL-28 = tested on: SK-MEL-28
M14 = tested on: M14
OVCAR-4 = tested on: OVCAR-4
U-251 = tested on: U-251
OVCAR-3 = tested on: OVCAR-3
SK-OV-3 = tested on: SK-OV-3
KM12 = tested on: KM12
MDA-MB-231 = tested on: MDA-MB-231
TK-10 = tested on: TK-10
HCC 2998 = tested on: HCC 2998

Row | SMILES | GI50 (ACHN) | GI50 (SF-539) | GI50 (SNB-75) | GI50 (NCI-H23) | GI50 (MOLT-4) | GI50 (SNB-19) | GI50 (786-0) | GI50 (RPMI-8226) | GI50 (T47D) | GI50 (SR) | GI50 (SK-MEL-28) | GI50 (M14) | GI50 (OVCAR-4) | GI50 (U-251) | GI50 (OVCAR-3) | GI50 (SK-OV-3) | GI50 (KM12) | GI50 (MDA-MB-231) | GI50 (TK-10) | GI50 (HCC 2998)
1 | O=C1/C(=C/c2ccco2)N=C(c2ccccc2)N1c1cc2cc(Sc3ccccc3)ccc2[nH]1 | > 25 µM (inactive) | 17.9 µM (inactive) | > 25 µM (inactive) | > 25 µM (inactive) | 22.4 µM (inactive) | > 25 µM (inactive) | > 25 µM (inactive) | 0.457 µM (active) | 15.8 µM (inactive) | 5.18 µM (inactive) | > 25 µM (inactive) | 21.6 µM (inactive) | > 25 µM (inactive) |  |  |  |  |  |  | 
2 | CN1C(=O)NC(=O)/C(=C\Nc2ncccn2)C1=O | > 100 µM (inactive) | > 100 µM (inactive) | > 100 µM (inactive) | > 100 µM (inactive) | > 100 µM (inactive) | > 100 µM (inactive) | > 100 µM (inactive) |  | > 100 µM (inactive) |  | > 100 µM (inactive) | > 100 µM (inactive) | > 100 µM (inactive) | > 100 µM (inactive) | > 100 µM (inactive) | > 100 µM (inactive) | > 100 µM (inactive) | > 100 µM (inactive) | > 100 µM (inactive) | 
3 | COC(=O)[C@@H]1[C@H]2CC[C@]3(C)[C@@H](OC(C)=O)CC[C@H]3[C@@H]2CC[C@H]1C(C)=O | > 100 µM (inactive) | > 100 µM (inactive) | > 100 µM (inactive) | > 100 µM (inactive) | > 100 µM (inactive) | > 100 µM (inactive) | > 100 µM (inactive) | > 100 µM (inactive) | > 100 µM (inactive) |  | > 100 µM (inactive) | > 100 µM (inactive) |  | > 100 µM (inactive) | > 100 µM (inactive) | > 100 µM (inactive) | > 100 µM (inactive) | > 100 µM (inactive) | > 100 µM (inactive) | > 100 µM (inactive)
4 | CC(=O)OCCn1c(Cc2ccc(Cl)cc2)nn(C(C)=O)c1=O | > 100 µM (inactive) | > 100 µM (inactive) |  | > 100 µM (inactive) | > 100 µM (inactive) | > 100 µM (inactive) | > 100 µM (inactive) | > 100 µM (inactive) | > 100 µM (inactive) |  | > 100 µM (inactive) | > 100 µM (inactive) | > 100 µM (inactive) | > 100 µM (inactive) | > 100 µM (inactive) | > 100 µM (inactive) | > 100 µM (inactive) | > 100 µM (inactive) | > 100 µM (inactive) | > 100 µM (inactive)
5 | CC(=O)Nc1ccc2nc(-c3ccccn3)c(-c3ccccn3)nc2c1 | > 100 µM (inactive) | > 100 µM (inactive) | > 100 µM (inactive) |  | > 100 µM (inactive) | > 100 µM (inactive) | > 100 µM (inactive) | > 100 µM (inactive) |  | > 100 µM (inactive) | > 100 µM (inactive) | > 100 µM (inactive) | > 100 µM (inactive) | > 100 µM (inactive) | > 100 µM (inactive) |  | > 100 µM (inactive) | > 100 µM (inactive) | > 100 µM (inactive) | > 100 µM (inactive)
6 | O=C(NC(CO)CO)c1ccc2cc(C(=O)N3CC(CCl)c4ccc([N+](=O)[O-])cc43)[nH]c2c1 (stereo unspecified) | > 100 µM (inactive) | > 100 µM (inactive) | > 100 µM (inactive) | > 100 µM (inactive) | > 100 µM (inactive) | > 100 µM (inactive) | > 100 µM (inactive) |  | 0.619 µM (active) |  | > 100 µM (inactive) | > 100 µM (inactive) | > 100 µM (inactive) | > 100 µM (inactive) | > 100 µM (inactive) | > 100 µM (inactive) | > 100 µM (inactive) | 66.1 µM (inactive) | > 100 µM (inactive) | > 100 µM (inactive)
